The conditions of the series: 298.15 K; 101.33 kPa; Crystal; X-ray diffraction.

Numbers after ± are expanded uncertainties.

Results on 2 compounds are retold here after the NIST ThermoML archive (doi:10.1016/j.tca.2011.02.008).

With `O.O.O.O.O.O.O.O=C([O-])c1cccc(C(=O)[O-])n1.O=C([O-])c1cccc(C(=O)[O-])n1.[Cu+2].[K+].[K+]` [dipotassium copper 2,6-pyridinedicarboxylate heptahydrate], the mass density is 1740 ± 2 kg/m3.

In the case of `O.O.O.O.O.O.O.O=C([O-])c1cccc(C(=O)[O-])n1.O=C([O-])c1cccc(C(=O)[O-])n1.[K+].[K+].[Ni+2]` [dipotassium nickel 2,6-pyridinedicarboxylate heptahydrate], the mass density is recorded as 1723 ± 2 kg/m3.

What is called mass density is the mass of a sample divided by its volume.
